# Measured values taken from patent US9738902B2, “Modified PYR/PYL receptors activated by ligands” (priority 2013, dated 2017).
# What was measured:
# PYR1-OX = assay: qRT-PCR of ABA-regulated genes RD29B and RAB18; format: in vivo, Arabidopsis; settings: 2 μM mandipropamid, 8 hours
# Description: (§1) One of ABA's major effects is to regulate gene expression. We therefore examined the effects of ABA and mandipropamid on gene expression in wild type, PYR-OX, MDP1 and MPD2 transgenic plants. Seed of the wild type or transgenic lines were surface sterilized, stratified for 4 days at 4° C. and then grown for 10 days at room temperature under continuous illumination in a liquid culture consisting of 0.5×MS salts and 0.5% sucrose and grown with continuous shaking to provide aeration. After 10 days, the culture solutions were adjusted to contain 50 μM ABA, 2 μM mandipropamid, or a mock treatment. After 8 hours exposure to the test compounds RNA was isolated using RNAEasy™ Plant RNA isolation kit (Qiagen, USA) and treated with DNAse. The purified RNA was utilized in qRT-PCR reactions using primers for the ABA-regulated genes RD29B or RAB18. Biological triplicate and triple technical replicate measurements were conducted. To perform qRT-PCR analyses, cDNA was generated from 5 μg of total RNA using superscript reverse transcriptase III (Invitrogen, USA), in reaction mixture containing a oligo-dT20 (SEQ ID NO:110) and a ribosomal RNA primer. Real-time quantitative PCR analysis was performed by ΔCt method of relative quantification. PCR mixtures contained cDNA, Maxima® SYBR green/Fluorescein qPCR master mix (Fermentas, USA) and 330 nM of each gene-specific primer. RT-PCRs were conducted using a BioRad CFX96 Real-Time PCR System and the data were processed using the BioRad CFX Manager software (BioRad, USA). PCRs were performed under the following cycling conditions: 3 min at 95° C., followed by 40 cycles of 10 sec at 95° C., 10 sec at 55° C. and 30 sec at 72° C. in 96-well optical reaction plates (BioRad, USA). The specificity of amplicons was verified by melting curve (disassociation) analysis (60-95° C.) after 40 cycles. Input cDNA was normalized using an internal control gene, PEX4 (AT5G25760).
# [1] = system: MDP1 and MDP2 transgenic plants; assay: qRT-PCR of ABA-regulated genes RD29B and RAB18; format: in vivo, Arabidopsis; settings: MDP1 and MDP2, 2 μM mandipropamid, 8 hours
# Description: as §1
# wild type = assay: qRT-PCR of ABA-regulated genes RD29B and RAB18; format: in vivo, Arabidopsis; settings: 2 μM mandipropamid, 8 hours
# Description: as §1
# [2] = target: T1, PYR1 Y58H K59R F108A S122G (Arabidopsis thaliana, UniProt O49686, F108A/K59R/S122G/Y58H); assay: Y2H Recombination Mutagenesis (HAB1, X-gal); format: cell-based
# T1 construct: expressed in transfected cells; host or cells: S. cerevisiae Y190 pACT-HAB1
# T1 sequence (O49686 whole entry Y58H/K59R/F108A/S122G): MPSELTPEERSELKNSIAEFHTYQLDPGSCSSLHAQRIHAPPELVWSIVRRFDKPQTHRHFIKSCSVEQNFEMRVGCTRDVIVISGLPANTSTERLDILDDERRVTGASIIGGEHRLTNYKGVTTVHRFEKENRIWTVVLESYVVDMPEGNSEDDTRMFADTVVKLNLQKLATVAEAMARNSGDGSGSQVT
# T1 sequence (Q9CAJ0 23-511 partner): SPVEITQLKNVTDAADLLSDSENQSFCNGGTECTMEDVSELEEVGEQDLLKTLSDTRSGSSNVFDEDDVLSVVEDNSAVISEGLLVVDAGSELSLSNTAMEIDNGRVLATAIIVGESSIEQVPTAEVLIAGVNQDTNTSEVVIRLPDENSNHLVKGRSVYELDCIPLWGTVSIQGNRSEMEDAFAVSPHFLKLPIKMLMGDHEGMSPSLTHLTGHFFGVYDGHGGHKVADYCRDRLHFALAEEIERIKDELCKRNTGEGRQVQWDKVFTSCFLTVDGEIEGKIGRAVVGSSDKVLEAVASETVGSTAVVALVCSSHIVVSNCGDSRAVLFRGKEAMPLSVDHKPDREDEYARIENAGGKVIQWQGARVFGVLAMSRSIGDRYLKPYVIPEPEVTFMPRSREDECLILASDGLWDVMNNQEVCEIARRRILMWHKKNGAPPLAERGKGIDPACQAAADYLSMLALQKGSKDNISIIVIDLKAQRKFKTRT
# Text: As a second approach, we used recombination-based mutagenesis to search for mutant combinations that enhance the sensitivity of PYR1^K59R,F108A,S122G to mandipropamid. Nucleotide excision and exchange technology (NExT) (Müller et al., 2005) was used to mutagenize an equal amount of PYR1^K59R,F108A,S122G template with an equal amount of template DNA that was made by pooling plasmid DNA from the NNK plasmid libraries made above for each of the 23 ligand-contacting residues in the PYR1^K59R,F108A,S122G backbone. Thus, PYR1^K59R,F108A,S122G was mutagenized with recombination-based mutagenesis using a library of pocket site mutations. An ˜200,000 member library of mutagenized clones was generated and was transformed into the MAV99 pACT-HAB1 reporter strain. Selections were conducted on plates containing 0.5 μM mandipropamid and appropriate nutrients and amino acids. To establish if strain growth was ligand dependent, the positive clones were subsequently tested for growth on selective plates lacking mandipropamid. Next, plasmids were isolated from strains showing ligand-dependent growth and the mandipropamid sensitivity of mutant receptors characterized using X-gal staining (after transformation into the into the Y190 pACT-HAB1 reporter strain). […]
# PYR1 K59R F108A S122G = target: T2, PYR1 K59R F108A S122G (Arabidopsis thaliana, UniProt O49686, F108A/K59R/S122G); assay: Y2H Combinatorial Mutagenesis Screen I (HAB1, X-gal); format: cell-based
# T2 construct: expressed in transfected cells; host or cells: S. cerevisiae Y190 two-hybrid reporter strain
# T2 sequence (Q9CAJ0 23-511): as the sequence (Q9CAJ0 23-511 partner) above
# T2 sequence (O49686 whole entry K59R/F108A/S122G): as the sequence (O49686 whole entry Y58H/K59R/F108A/S122G) above, with H58Y counted along it
# Text: This screening approach yielded mutants at ligand contacting residues that alter sensitivity to specific ligands. We reasoned that receptor sensitivity could be improved by systematically constructing combinations of the best mutant variants identified in the first round of screening. To test this, we constructed mutant combinations using the strongest mutations identified for mandipropamid, benzothiadiazole, benoxacor or fludioxonil sensitivity. The mutations selected for combinatorial mutagenesis are listed in bold type in Table 1; The mutant combinations were constructed using the QuickChange Lightning Multi Site-Directed PCR Mutagenesis kit (Agilent, USA) using pBD-PYR1^K59R template DNA and mutagenic primers, essentially as previously described (Mosquna et al., 2011). The mutant combinations were sequence validated, introduced into the pACT-HAB1 Y190 reporter strain and then tested for responsiveness to a range of compound concentrations (100, 50, 25, 10, 1, 0.2, 0.1 or 0 μM each test compound). These efforts yielded double mutant receptor variants with improved sensitivity for the 4 compound/receptor pairs examined (see entries labeled “Combinatorial Mutagenesis Screen I” in Table 1).
# The preceding efforts identified PYR1^K59R,F108A,S122G, which is responsive to mandipropamid concentrations as low as 1 μM. […]
smiles,measurement,setting,value
"C#CCOc1ccc(CCNC(=O)C(OCC#C)c2ccc(Cl)cc2)cc1OC (centres unmarked) [Mandipropamid, mandipropamid]",transcription of RD29B and RAB18,PYR1-OX,does not do so
same,transcription of RD29B and RAB18,[1],high-level transcription
same,transcription of RD29B and RAB18,wild type,does not do so
same,Threshold,[2],0.25 µM
same,Threshold,PYR1 K59R F108A S122G,1 µM
